Patent US20030180291A1, “Method of inactivating viruses” (priority 1998, published 2003)
Where “and” joins values, the source holds several entries; their conditions need not be identical. Equal values may be shown once.

How the values were obtained:
[1] = test system: Humane Immunodeficiency Virus Type 1 (HIV-1, strain HTLV-IIIb)
[2] = test system: Vesicular Stomatitis (VSV, strain Indiana)
[3] = test system: PseudoRabies virus (PSR, strain Bartha K61)
[4] = test system: Vesicular Stomatitis virus (VSV); format: cell-based
humane erythrocytes = format: cell-based, human

SMILES | effective [DMMB] [1] [µM] | effective [DMMB] [2] | effective [DMMB] [3] [µM] | effect of light exposure on virus inactivation in absence of sensitizer [4] | effect of dipyridamol on the effective concentration of sensitizer [1] | effect of dipyridamol on the effective concentration of sensitizer [2] | effect of dipyridamol on the effective concentration of sensitizer [3] | haemolysis after the erythrocytes had been stored for 12 days at 4° C. (humane erythrocytes)
Cc1cc(=[N+](C)C)cc2sc3cc(N(C)C)cc(C)c3nc1-2.[Cl-] [DMMB, dimethyl-methylene blue] | 8 | 4 µM and 5 µM | 4 |  |  |  |  | 
Cc1ncc(COP(=O)(O)O)c(C=O)c1O [pyridoxal phosphate] |  |  |  | no effect at all |  |  |  | 
OCCN(CCO)c1nc(N2CCCCC2)c2nc(N(CCO)CCO)nc(N3CCCCC3)c2n1 [dipyridamol] |  |  |  | no effect at all | did not, or only barely appear to affect | did not, or only barely appear to affect | did not, or only barely appear to affect | very strong reduction
